Measurements as given in patent publication US20260217701A1, “SELECTIVE BET INHIBITORS AND USES THEREOF” (Tay Therapeutics Limited, priority 2022, published 2026).
“And” between values parts separate entries of the source, which are not always exact repeats. Equal entries are not always repeated.

Columns and labels:
UUO study: body weight = type: in vivo; conditions: UUO rats; for Body Weight: 10 mg/kg QD, 10 mg/kg; for Mean + SD of Body Weight: group 3, group mean
lupus = test: SLE (lupus) model: proteinuria scores; type: in vivo, MRL/MpJ-Faslpr mice; conditions: for End proteinuria score ± SEM: end of study (Week 19)
Experimental: Female MRL/MpJ-Faslpr mice (The Jackson Laboratory) were used to assess the efficacy of Compound A in treating lupus. Starting when animals were 10 weeks of age, protein concentration in urine was measured using urine dipsticks.
At the start of the study, each group in the study had two animals that were 9 weeks old, and all others were 10 weeks old. Dosing of all animals with the test compounds began when the older animals were 11 weeks old. […] […] Dosing was at a consistent time each dosing day throughout the study.
Compound A may be formulated as illustrated in Experimental Method A (see Table 2E.). […] A stock solution of Compound A in DMSO (stock solution concentration of Compound A of 40 mg/mL) was prepared and aliquots for weekly preparations were frozen at −20° C. On each preparation day, a stock solution aliquot was thawed and diluted with other vehicle components to the desired concentration. Formulated Compound A and vehicle were at room temperature for dosing.
The study began when the older animals were 11 weeks old, and concluded when the older animals were 19 weeks old. Body weight was recorded once a week, with the exception of two weight measurements taken the first week of the study (when the older animals were 11 weeks old). Proteinuria was measured in the urine of animals with urine dipsticks once a week, starting when the older animals were 10 weeks old. […] Blood samples were taken retro-orbitally at the start of the study to establish a baseline (15 animals, 3 per group), and when the older animals were 16 weeks (all animals) and when animals were 19 weeks (all animals) at the conclusion of the study. Blood urea nitrogen (BUN) was measured in all animals at study termination in blood samples. After blood collection, animals were euthanized, perfused with PBS, and the left kidneys were collected and weighed and fixed in 10% buffered formalin. Left kidneys were then processed to a formalin-fixed, paraffin-embedded (FFPE) block, and histology was analyzed in Periodic Acid-Schiff-stained sections (1 section per slide), using the criteria described in Alperovich et al., Lupus, 16:18-24 (2007). Right kidneys were weighed and snap-frozen at −80° C. Spleens were also collected and weighed. SLE in animals treated with a BET inhibitor and vehicle.

In the case of `Cn1cc(-c2ccccc2)c(-c2cn(C)c(=O)c3[nH]c(-c4cnn(C(F)(F)F)c4)cc23)cc1=O` [Compound A, 6-methyl-4-(1-methyl-2-oxo-5-phenyl-1,2-dihydropyridin-4-yl)-2-(1-(trifluoromethyl)-1H-pyrazol-4-yl)-1,6-dihydro-7H-pyrrolo[2,3-c]pyridin-7-one], the “Body Weight” value (UUO study: body weight; individual animals 1-8, Day 0) is reported as 304 g (2×) and 308 g and 291 g and 306 g and 307 g, the “Body Weight” value (UUO study: body weight; individual animals 1-8, Day 1) is reported as 290 g and 296 g and 304 g and 281 g and 279 g and 298 g and the “Body Weight” value (UUO study: body weight; individual animals 1-8, Day 2) is reported as 283 g and 294 g and 297 g and 281 g and 275 g and 290 g. For the same molecule, the “Body Weight” value (UUO study: body weight; individual animals 1-8, Day 3) was 286 g and 292 g and 298 g and 280 g and 276 g and 288 g, the “Body Weight” value (UUO study: body weight; individual animals 1-8, Day 4) was 285 g and 288 g and 301 g and 277 g and 275 g and 294 g and the “Body Weight” value (UUO study: body weight; individual animals 1-8, Day 5) was 283 g and 290 g and 300 g and 278 g and 268 g and 285 g. The “Body Weight” value (UUO study: body weight; individual animals 1-8, Day 6) was 283 g and 290 g (2×) and 297 g and 281 g and 266 g and 275 g, the “Body Weight” value (UUO study: body weight; individual animals 1-8, Day 7) was 290 g and 285 g and 303 g and 280 g and 260 g and 299 g and 274 g and the “Body Weight” value (UUO study: body weight; individual animals 1-8, Day 8) was 295 g and 284 g and 304 g and 279 g and 262 g and 303 g and 275 g. For the same molecule, the “Body Weight” value (UUO study: body weight; individual animals 1-8, Day 9) was 305 g and 284 g (2×) and 310 g and 279 g and 304 g and 275 g, the “Body Weight” value (UUO study: body weight; individual animals 1-8, Day 10) was 300 g and 284 g and 311 g and 277 g and 270 g and 304 g and the “Body Weight” value (UUO study: body weight; individual animals 1-8, Day 11) was 298 g and 297 g and 311 g and 278 g and 271 g and 315 g. The “Body Weight” value (UUO study: body weight; individual animals 1-8, Day 12) was 295 g and 291 g and 319 g and 283 g and 271 g and 315 g, the “Body Weight” value (UUO study: body weight; individual animals 1-8, Day 13) was 294 g and 293 g and 318 g and 286 g and 270 g and 320 g and the “Body Weight” value (UUO study: body weight; individual animals 1-8, Day 14) was 298 g and 296 g and 322 g and 291 g and 281 g and 331 g. For the same molecule, the “Body Weight” value (UUO study: body weight; individual animals 1-8, Day −1) was 284 g and 304 g and 299 g and 289 g and 297 g and 301 g, the “Mean + SD of Body Weight” value (UUO study: body weight; Day 0) was 302 ± 6 g and the “Mean + SD of Body Weight” value (UUO study: body weight; Day 1) was 288 ± 11 g. The “Mean + SD of Body Weight” value (UUO study: body weight; Day 2) was 285 ± 8 g, the “Mean + SD of Body Weight” value (UUO study: body weight; Day 3) was 284 ± 9 g and the “Mean + SD of Body Weight” value (UUO study: body weight; Day 4) was 283 ± 11 g. The “Mean + SD of Body Weight” value (UUO study: body weight; Day 5) was 281 ± 11 g, the “Mean + SD of Body Weight” value (UUO study: body weight; Day 6) was 282 ± 10 g and the “Mean + SD of Body Weight” value (UUO study: body weight; Day 7) was 284 ± 14 g. For the same molecule, the “Mean + SD of Body Weight” value (UUO study: body weight; Day 8) was 285 ± 15 g, the “Mean + SD of Body Weight” value (UUO study: body weight; Day 9) was 291 ± 13 g and the “Mean + SD of Body Weight” value (UUO study: body weight; Day 10) was 289 ± 14 g. For the same molecule, the “Mean + SD of Body Weight” value (UUO study: body weight; Day 11) was 292 ± 17 g, the “Mean + SD of Body Weight” value (UUO study: body weight; Day 12) was 294 ± 17 g and the “Mean + SD of Body Weight” value (UUO study: body weight; Day 13) was 296 ± 17 g. The “Mean + SD of Body Weight” value (UUO study: body weight; Day 14) was 300 ± 18 g, the “Mean + SD of Body Weight” value (UUO study: body weight; Day −1) was 294 ± 7 g and the Body weight course (UUO study: body weight; 10 mg/kg daily, 14-day study) was “slight weight loss over the course of the 14-day study before regaining their original weight”. The “Proteinuria levels, lower than vehicle-treated group” value (lupus; 10 mg/kg, Week 19) was “about 74.8%”, the Proteinuria levels (lupus; 1, 3, 10 mg/kg) was “reduced proteinuria levels in a dose-dependent manner” and the Mean proteinuria score (lupus; Compound A 1 mg/kg PO QD, Week 10) was 1.96. The Mean proteinuria score (lupus; Compound A 1 mg/kg PO QD, Week 11) was 1.96 +, the Mean proteinuria score (lupus; Compound A 1 mg/kg PO QD, Week 12) was 2.29 and the Mean proteinuria score (lupus; Compound A 1 mg/kg PO QD, Week 13) was 2.57. It also gave a Mean proteinuria score (lupus; Compound A 1 mg/kg PO QD, Week 14) of 2.79, a Mean proteinuria score (lupus; Compound A 1 mg/kg PO QD, Week 15) of 3.07 and a Mean proteinuria score (lupus; Compound A 1 mg/kg PO QD, Week 16) of 2.82. For the same molecule, the Mean proteinuria score (lupus; Compound A 1 mg/kg PO QD, Week 17) was 3.07, the Mean proteinuria score (lupus; Compound A 1 mg/kg PO QD, Week 18) was 3.11± and the Mean proteinuria score (lupus; Compound A 1 mg/kg PO QD, Week 19) was 3.36. For the same molecule, the “End proteinuria score ± SEM” value (lupus; Compound A 1 mg/kg PO QD) was 3.36 ± 0.19, the Mean proteinuria score (lupus; Compound A 3 mg/kg PO QD, Week 10) was 1.96 and the Mean proteinuria score (lupus; Compound A 3 mg/kg PO QD, Week 11) was 1.96. It also gave a Mean proteinuria score (lupus; Compound A 3 mg/kg PO QD, Week 12) of 2.04, a Mean proteinuria score (lupus; Compound A 3 mg/kg PO QD, Week 13) of 2.50 and a Mean proteinuria score (lupus; Compound A 3 mg/kg PO QD, Week 14) of 2.46. It also gave a Mean proteinuria score (lupus; Compound A 3 mg/kg PO QD, Week 15) of 2.85, a Mean proteinuria score (lupus; Compound A 3 mg/kg PO QD, Week 16) of 2.65 and a Mean proteinuria score (lupus; Compound A 3 mg/kg PO QD, Week 17) of 2.77. The Mean proteinuria score (lupus; Compound A 3 mg/kg PO QD, Week 18) was 2.73, the Mean proteinuria score (lupus; Compound A 3 mg/kg PO QD, Week 19) was 3.04 and the “End proteinuria score ± SEM” value (lupus; Compound A 3 mg/kg PO QD) was 3.04 ± 0.24. For the same molecule, the Mean proteinuria score (lupus; Compound A 10 mg/kg PO QD, Week 10) was 1.96, the Mean proteinuria score (lupus; Compound A 10 mg/kg PO QD, Week 11) was 1.96 and the Mean proteinuria score (lupus; Compound A 10 mg/kg PO QD, Week 12) was 2.04. The Mean proteinuria score (lupus; Compound A 10 mg/kg PO QD, Week 13) was 2.21, the Mean proteinuria score (lupus; Compound A 10 mg/kg PO QD, Week 14) was 2.07 and the Mean proteinuria score (lupus; Compound A 10 mg/kg PO QD, Week 15) was 2.43. For the same molecule, the Mean proteinuria score (lupus; Compound A 10 mg/kg PO QD, Week 16) was 2.32, the Mean proteinuria score (lupus; Compound A 10 mg/kg PO QD, Week 17) was 2.32 and the Mean proteinuria score (lupus; Compound A 10 mg/kg PO QD, Week 18) was 2.00. The Mean proteinuria score (lupus; Compound A 10 mg/kg PO QD, Week 19) was 2.32 and the “End proteinuria score ± SEM” value (lupus; Compound A 10 mg/kg PO QD) was 2.32 ± 0.15.
